Results: ChEMBL document CHEMBL1201862, “PubChem BioAssay data set” (2004)
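Five concentrations, 48 hours, 96-well plates. GI50 is the concentration that inhibits growth by half.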 Activity calls are given as the source filed them. Cut-off read from the data, not from the text of the source: active = GI50 up to about 1.1 µM and inactive = higher.

What was measured:
Assay in all cases: NCI-60 cell line screen, 48 h
[1] = test system: IGROV-1
[2] = test system: EKVX
[3] = test system: SN12C
[4] = test system: DMS-114
[5] = test system: XF498
[6] = test system: KM12
[7] = test system: SK-MEL-28
[8] = test system: CAKI-1
[9] = test system: OVCAR-8
[10] = test system: SR
[11] = test system: HT-29
[12] = test system: M19-MEL
[13] = test system: CCRF-CEM
[14] = test system: SF-295
[15] = test system: RXF 393
[16] = test system: ACHN
[17] = test system: SNB-19
[18] = test system: KM-20L2
[19] = test system: RPMI-8226
[20] = test system: U-251
[21] = test system: NCI-H460
[22] = test system: SK-MEL-5
[23] = test system: OVCAR-4
[24] = test system: HOP-92
[25] = test system: Malme-3M
[26] = test system: HOP-62
[27] = test system: OVCAR-5
[28] = test system: SF-268
[29] = test system: TK-10
[30] = test system: HCT-15
[31] = test system: DMS-273
[32] = test system: NCI-H23
[33] = test system: HCT-116
[34] = test system: SW-620
[35] = test system: LOX IMVI
[36] = test system: UACC-257
[37] = test system: SK-MEL-2
[38] = test system: HOP-18
[39] = test system: SNB-78
[40] = test system: SF-539
[41] = test system: A549
[42] = test system: OVCAR-3
[43] = test system: DLD-1
[44] = test system: 786-0
[45] = test system: A498
[46] = test system: SNB-75
[47] = test system: UACC-62
[48] = test system: COLO 205
[49] = test system: K562

**Q.** What does the source list for COc1ccc(C(=O)NCCC2=CCCCC2)cc1?
**A.** GI50 [1]: > 100 µM (inactive); GI50 [2]: > 100 µM (inactive); GI50 [3]: > 100 µM (inactive); GI50 [4]: > 100 µM (inactive); GI50 [5]: > 100 µM (inactive); GI50 [6]: > 100 µM (inactive); GI50 [7]: > 100 µM (inactive); GI50 [8]: > 100 µM (inactive); GI50 [9]: > 100 µM (inactive); GI50 [10]: > 100 µM (inactive); GI50 [11]: > 100 µM (inactive); GI50 [12]: > 100 µM (inactive); GI50 [13]: > 100 µM (inactive); GI50 [14]: > 100 µM (inactive); GI50 [15]: > 100 µM (inactive); GI50 [16]: > 100 µM (inactive); GI50 [17]: > 100 µM (inactive); GI50 [18]: > 100 µM (inactive); GI50 [19]: > 100 µM (inactive); GI50 [20]: > 100 µM (inactive); GI50 [21]: > 100 µM (inactive); GI50 [22]: > 100 µM (inactive); GI50 [23]: > 100 µM (inactive); GI50 [24]: 78.5 µM (inactive); GI50 [25]: > 100 µM (inactive); GI50 [26]: > 100 µM (inactive); GI50 [27]: > 100 µM (inactive); GI50 [28]: > 100 µM (inactive); GI50 [29]: > 100 µM (inactive); GI50 [30]: > 100 µM; GI50 [31]: > 100 µM (inactive); GI50 [32]: > 100 µM (inactive); GI50 [33]: > 100 µM (inactive); GI50 [34]: > 100 µM (inactive); GI50 [35]: > 100 µM (inactive); GI50 [36]: > 100 µM (inactive); GI50 [37]: > 100 µM (inactive); GI50 [38]: > 100 µM (inactive); GI50 [39]: > 100 µM (inactive); GI50 [40]: > 100 µM (inactive); GI50 [41]: > 100 µM (inactive); GI50 [42]: > 100 µM (inactive); GI50 [43]: > 100 µM (inactive); GI50 [44]: > 100 µM (inactive); GI50 [45]: 85.7 µM (inactive); GI50 [46]: > 100 µM (inactive); GI50 [47]: > 100 µM (inactive); GI50 [48]: > 100 µM (inactive); GI50 [49]: > 100 µM (inactive)
